From US7537906B2, “Apoptosis inducer and method of screening for a substance inhibiting acylated homoserine lactone” (priority 2003, dated 2009) come the findings set out here.

Common to all, as to format: cell-based, human
For one series, the system named is p38. In words: MAP kinase activity by Western blot in CaCo-2 cells: phosphorylated p38. The procedure:
(§1) A CaCo-2 carcinoma cell line of human colon cancer was purchased from American Type Culture Collection (ATCC), and cultured at 37° C. in the presence of 5% CO2 using a DMEM medium containing 10% FCS, 1% NEAA and 1% P/S (100 units/ml penicillin and 100 μg/ml streptomycin).
(§2) 6×10^5 CaCo-2 cells were inoculated per dish using 6 cm dishes (NUNC), washed twice with phosphate buffered saline (PBS) (-), and then cultured in a serum-free DMEM medium containing 1% NEAA for 24 hours. Subsequently, at a final concentration of 100 μM, homoserine lactone hydrochloride and N-(3-oxododecanoyl)-L-homoserine lactone were each added, and then each solution was allowed to react for 10 minutes. Furthermore, purified acylated homoserine lactone used herein had been dissolved in DMSO in a concentration 400 times higher than the target final concentration, and then subjected to filter sterilization (φ 0.22 μm). As a control, DMSO with a final concentration of 0.25% was used. In addition, α-tubulin was used as an internal standard.
(§3) After reaction, the product was washed twice with cold PBS (-), and then frozen at −80° C. The cells were thawed on ice. 200 μl of a lysis buffer (50 mM HEPES, pH 7.5, 50 mM NaCl, 1 mM EDTA, 1.5 mM MgCl2, 1% Triton X-100, 10% glycerin, 10 mM sodium pyrophosphate, 1 mM Na3VO4, 100 mM NaF, 1 mM PMSF, 10 μg/ml aprotinin and 10 μg/ml leupeptin) was added to the cells, and then the cells were scraped off using a scraper. The cells were allowed to stand on ice for 20 minutes, and then centrifuged at 14000 rpm at 4° C. for 15 minutes, thereby collecting the supernatant. Concentration of the collected protein was measured, and then the protein equivalent to 50 μg was subjected to SDS-PAGE. After electrophoresis, the product was blotted on a PVDF membrane. When phosphorylated ERK, JNK, p38 and Akt were measured, blocking was carried out with 0.1% Tween 20 (TBS-T) containing 5% skim milk/Tris-buffered saline. As primary antibodies, an anti-phospho-p44/42 MAP kinase antibody, an anti-phospho-SAPK/JNK antibody, an anti-phospho-p38 MAP kinase antibody, and an anti-phospho-Akt ([…]) antibody were each used. As a secondary antibody, an HRP-labeled anti-rabbit IgG antibody was used. For the α-tubulin used as an internal standard, blocking was carried out with 5% bovine serum albumin (BSA)/TBS-T, and an anti-α-tubulin (Ab-1) antibody and an HRP-labeled anti-mouse IgG antibody were used as a primary antibody and a secondary antibody, respectively. For band detection, Renaissance™ Western Blot Chemiluminescence […] Reagent Plus (NEN) or Western Blotting Luminol Reagent (SANTA CRUZ BIOTECHNOLOGY) was used.
(§4) After cell culture, MAP kinase activity and Akt activity were analyzed by Western blot in a manner similar to that used in (1), except that N-(3-oxododecanoyl)-L-homoserine lactones in final concentrations of 0 μM (0.25% DMSO), 1 μM, 10 μM, 30 μM and 100 μM were each added and each solution was allowed to react for 10 minutes (FIG. 8).
(§5) After cell culture, N-(3-oxododecanoyl)-L-homoserine lactone with final concentrations of 30 μM and 100 μM were added. For each case, MAP kinase activity and Akt activity were measured by Western blot in a manner similar to that in (1), except for carrying out stimulation with acylated homoserine lactone in a short time course of 0, 5, 10, 30 and 60 minutes (FIG. 11), and in a long time course of 0, 10 minutes, 60 minutes, 2 hours, 4 hours, 6 hours, 8 hours and 10 hours (FIG. 12). In the case of stimulation at 30 μM, both ERK and p38 activities increased with a peak at 10 minutes. However, while ERK activity returned to the base level within 30 minutes, p38 activity lasted until 4 hours after stimulation. The inhibition of Akt activity in the case of stimulation at 30 μM peaked at 5 minutes and lasted until 60 minutes after stimulation, and returned to the base level within 2 hours. ERK activation took place with two steps in the case of stimulation at 100 μM. […]

A further series concerns ERK. In words: MAP kinase activity by Western blot in CaCo-2 cells: phosphorylated ERK. How it is done:
as §1, §2, §3, §4, §5

Series [1] concerns CaCo-2 cells. In words: Effects of kinase inhibitors on N-(3-oxododecanoyl)-L-homoserine lactone-dependent apoptosis, viability by Trypan blue staining. Particulars: 30 μM alone, 12 hours, control 96%. The procedure:
2×10^5 CaCo-2 cells were inoculated per 3.5 cm dish, cultured for 12 hours in the presence of 10% serum, washed twice with PBS (-), and then synchronously cultured in a serum-free medium for 24 hours. Pretreatment with various inhibitors (50 μM PD98059 and 20 μM SB203580) or DMSO was carried out for 30 minutes. Then 30 μM N-(3-oxododecanoyl)-L-homoserine lactone or DMSO was added, the cells were cultured for 12 hours, and then viability was measured by Trypan blue staining.

The test system of series [2] is CaCo-2 cells. The experiment in a line: Evaluation of apoptosis by DNA fragmentation (DNA ladder). Particulars: CaCo-2 cells cultured for 12 hours, 0-100 μM. How it is done:
5×10^6 CaCo-2 cells were inoculated per 15 cm dish (NUNC), washed twice with PBS (-), and then cultured in a serum-free DMEM medium containing 1% NEAA for 24 hours. N-(3-oxododecanoyl)-L-homoserine lactone was added at each concentration (1 μM to 100 μM), followed by 12 hours of culture. Subsequently, the supernatant and the cells removed from the dish using TE were centrifuged at room temperature at 800 rpm for 5 minutes, and the supernatant was removed. The cells were suspended with 300 μl of PBS (-), and then the suspension was centrifuged again at 4° C. at 2500 rpm for 5 minutes, and the supernatant was removed. The cells were lysed by the addition of 300 μl of a cytolysis buffer [10 mM Tris-HCl (pH 7.4), 10 mM EDTA (pH 8.0), 0.5% Triton X-100], and then allowed to stand on ice for 10 minutes, thereby extracting DNA fragments. The extract was centrifuged at 4° C. at 14000 rpm for 10 minutes. RNase A was added to the obtained supernatant, and then incubation was carried out at 37° C. for 1 hour. Proteinase K was further added, and then incubation was carried out at 50° C. for 30 minutes. The extract of the DNA fragments was concentrated by ethanol precipitation, and then electrophoresis was carried out using 2% agarose gel. After the gel was stained with ethidium bromide, DNA fragmentation was detected under a UV transilluminator.

In the series with p38 (10 μM, 10 minutes), `CCCCCCCCCC(=O)CC(=O)N[C@H]1CCOC1=O` [N-(3-oxododecanoyl)-L-homoserine lactone] came in with a p38 activity increase of 3.2 times. This compound had a p38 activity increase in the series with p38 (30 μM, 10 minutes) of 4.4 times. Also, in the series with p38 (100 μM, 10 minutes), the “activation of p38” value is “promoted” and the p38 activity increase was determined as 5.4 times. Besides, the “concentration at which levels of phosphorylated p38 significantly increased” value in the series on p38 (10 minutes) was at least 10 µM. Also, in the series with p38 (stimulation at 30 μM), the “p38 activity lasted until (after stimulation)” value was 4 h and the “time of peak p38 activity” value turned out to be 10 min. In the series with p38 (stimulation at 100 μM), the “p38 activity lasted until (after stimulation)” value stood at 8 h and the “time of peak p38 activation” value was 5 min. In the series on ERK (10 μM, 10 minutes), this compound returned an ERK activity increase of 1.5 times. This compound displayed an ERK activity increase in the series on ERK (30 μM, 10 minutes) of 7.7 times. Moreover, in the series with ERK (100 μM, 10 minutes), the ERK activity increase was determined as 9.8 times and the “activation of ERK” value is “promoted”. Besides, in the series on ERK (10 minutes), the “concentration at which levels of phosphorylated ERK significantly increased” value is at least 10 µM. In addition, in the series on ERK (stimulation at 30 μM), the “time for ERK activity to return to the base level” value was at most 30 min and the “time of peak ERK activity” value worked out at 10 min. Moreover, in the series on ERK (stimulation at 100 μM), the “time at which ERK activity began to increase, second step” value amounted to 4 h; the “time for ERK activity to return to the base level, first step” value was at most 2 h; the “time for ERK activity to return to the base level, second step” value is at most 10 h; the “time of peak ERK activity, first step” value is 5 min. Also, the “time of peak ERK activity, second step” value with ERK (stimulation at 100 μM) was 8 h. For the same compound, in the series with CaCo-2 cells [1], the viability is recorded as 49%. In addition, in the series on CaCo-2 cells [2], the “concentration at which the DNA ladder was observed” value was at least 30 µM.
